The assay relates to parent strain (SAWy518).
For the molecule `Clc1ccccc1C(c1ccccc1)(c1ccccc1)n1ccnc1` [CLOTRIMAZOLE], the Offscreen_18hr is 0.0789, the Offscreen_24hr is 0.1029 and the Offscreen_42hr worked out at 0.8087.

On to `CC(C(=O)O)c1ccc2c(c1)[nH]c1ccc(Cl)cc12` (stereo not drawn) [CARPROFEN], for which the Offscreen_18hr amounted to 0.7281, the Offscreen_24hr is listed as 0.8523 and the Offscreen_42hr was 0.8964.

As to `C=CCOC(Cn1ccnc1)c1ccc(Cl)cc1Cl.O=S(=O)(O)O` (stereo not drawn) [ENILCONAZOLE SULFATE], the Offscreen_18hr is listed as 0.81, the Offscreen_24hr was 0.8908 and the Offscreen_42hr is reported as 0.9485.

As for `O=C1c2ccccc2C(=O)c2c(O)c(O)cc(O)c21` [PURPURIN], the Offscreen_18hr worked out at 0.5082, the Offscreen_24hr came out at 0.6741 and the Offscreen_42hr came out at 0.7778.

For the molecule `OC(Cn1cncn1)(Cn1cncn1)c1ccc(F)cc1F` [FLUCONAZOLE], the Offscreen_18hr is reported as 0.7681, the Offscreen_24hr was determined as 0.8873 and the Offscreen_42hr was determined as 0.9468.

Take `COc1c(C)c2c(c(O)c1C/C=C(\C)CCC(=O)O)C(=O)OC2` [Mycophenolic (Mycophenolate)]: the Offscreen_18hr was determined as 0.6524, the Offscreen_24hr is reported as 0.8532 and the Offscreen_42hr is reported as 0.951.

As for `Nc1c2ccccc2nc2ccccc12` [AMINACRINE], the Offscreen_18hr amounted to 0.3466, the Offscreen_24hr worked out at 0.4931 and the Offscreen_42hr was 0.7904.

For the molecule `O=C1C(Cl)=C(Cl)C(=O)C(Cl)=C1Cl` [CHLORANIL], the Offscreen_18hr is recorded as 0.1832, the Offscreen_24hr turned out to be 0.4077 and the Offscreen_42hr is on record as 0.9247.

For the molecule `CCCc1c(-c2ccc(O)cc2)nn(-c2ccc(O)cc2)c1-c1ccc(O)cc1`, the OffScreen_percentage is listed as 98.9963 percentage, the Offscreen_18hr is on record as 0.7989, the Offscreen_24hr was 0.9026 and the Offscreen_42hr came out at 0.9515.

In the case of `O=C(O)/C=C/C=C/c1ccccc1` [JUAREZIC ACID], the Offscreen_18hr amounted to 0.6813, the Offscreen_24hr came to 0.7831 and the Offscreen_42hr came to 0.827.

Turning to `CCC(Cc1c(I)cc(I)c(N)c1I)C(=O)O` (stereo not drawn) [IOPANIC ACID], the Offscreen_18hr came to 0.6491, the Offscreen_24hr stood at 0.7855 and the Offscreen_42hr is on record as 0.8261.

Regarding `COc1ccc(-c2coc3cc(OC(C)=O)cc(OC(C)=O)c3c2=O)cc1` [BIOCHANIN A DIACETATE], the Offscreen_18hr was found to be 0.8079, the Offscreen_24hr was 0.8835 and the Offscreen_42hr is given as 0.9447.

Regarding Erythrosine, the OffScreen_percentage is on record as 100.818 percentage, the Offscreen_18hr worked out at 0.8136, the Offscreen_24hr is given as 0.8985 and the Offscreen_42hr came out at 0.9466. The Read_percentage is on record as 100.818 percentage.

For the molecule `CO[C@H]1C[C@@H]2CC[C@@H](C)[C@@](O)(O2)C(=O)C(=O)N2CCCC[C@H]2C(=O)O[C@H]([C@H](C)C[C@@H]2CC[C@@H](OC(=O)C(C)(CO)CO)[C@H](OC)C2)CC(=O)[C@H](C)/C=C(\C)[C@@H](O)[C@@H](OC)C(=O)[C@H](C)C[C@H](C)/C=C/C=C/C=C/1C` [Temsirolimus], the Offscreen_18hr is 0.0544, the Offscreen_24hr worked out at 0.0562 and the Offscreen_42hr turned out to be 0.0968.

For `CC[C@@H](C(=O)[C@@H](C)[C@@H](O)[C@H](C)[C@@H]1O[C@@H]([C@@H](CC)C(=O)[O-])CC[C@@H]1C)[C@H]1OC2(C=C[C@@H](O)[C@]3(CC[C@@](C)([C@H]4CC[C@](O)(CC)[C@H](C)O4)O3)O2)[C@H](C)C[C@@H]1C.[Na+]` (stereo partly drawn) [SALINOMYCIN, SODIUM], the Offscreen_18hr is 0.1472, the Offscreen_24hr is listed as 0.2295 and the Offscreen_42hr stood at 0.8421.

The values above are taken from paper PMC11637378, “Optogenetic screening of MCT1 activity implicates a cluster of non-steroidal anti-inflammatory drugs (NSAIDs) as inhibitors of lactate transport” (PLOS ONE, 2024).
